Test results published in patent US8343475B2, “Small cationic antimicrobial peptides” (priority 2006, dated 2013).
Values after ≈ are worked out from the molar mass of the structure shown. Residues, ends and D or L forms follow the SMILES beside them. No end group written: not given here.

What was measured:
Escherichia coli UB1005 = format: cell-based; conditions: indolicidin substitution variants (Table 4)
In short: (§1)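 First, peptides were serially diluted at ten times final strength in 0.01% acetic acid with 0.2% BSA. These were then added to Mueller Hinton medium and inoculated with overnight-grown organisms at 2-7×10^5 CFU/ml. After overnight incubation at 37° C, the MIC was scored as the concentration without growth.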

[1] = test system: lab isolate of Candida albicans; format: cell-based; conditions: lab isolate of
In short: as §1

[2] = test system: Enterococcus faecalis ATCC29212; format: cell-based; conditions: ATCC29212
In short: as §1

[3] = test system: Staphylococcus aureus ATCC25923; format: cell-based; conditions: ATCC25923
In short: as §1

[4] = test system: wild-type Salmonella enterica ssp. typhimurium; format: cell-based
In short: as §1

[5] = test system: clinical isolate of Staphylococcus epidermidis; format: cell-based; conditions: clinical isolate of
In short: as §1

[6] = test system: Pseudomonas aeruginosa PAO1 strain H103; format: cell-based; conditions: PAO1
In short: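 Modified broth microdilution MIC in Mueller Hinton medium, peptides diluted in 0.01% acetic acid/0.2% BSA, polypropylene plates. Inoculum 2-7×10^5 CFU/ml, overnight at 37 °C; MIC is the lowest concentration with no visible growth.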

[7] = test system: LPS-stimulated TNFα production in THP-1 cells; assay: Suppression of P. aeruginosa LPS-stimulated TNFα production (ELISA); format: cell-based, human; conditions: for ability to inhibit TNFα responses compared with indolicidin: 10 ng/ml P. aeruginosa LPS, peptides at 10, 20 and 50 μg/ml (FIG. 13)
Experimental: FIG. 12. Assessment of the ability of peptides to suppress P. aeruginosa LPS (10 ng/ml)-stimulated TNFα production in THP1 cells. Presented results are the mean values for 4 wells performed on 2 separate occasions. The x-axis number labeling is the amount of each peptide in μg/ml for the corresponding peptides.
FIG. 13. Suppression of inflammatory responses by peptides. Monocyte/macrophage-like adherent THP-1 cells were stimulated with 10 ng/ml P. aeruginosa LPS and the resulting TNFα response measured. Peptides were added at 10, 20 and 50 μg/ml. The observed TNF-release was measured by ELISA and related to the 100% value of the untreated (without peptide) cells.
Cytotoxicity and TNFα suppression assay. THP1 cells were cultured in RPMI 1640 medium (supplemented with 10% (v/v) FCS, 1% L-glutamine, and […] sodium pyruvate) in E-toxa-clean (Sigma-Aldrich, Oakville, Ontario, Canada)-washed, endotoxin-free bottle. THP1 cells were counted and 250 μl per well of […] were transferred into a 96 well tissue cultured treated polystyrene microtiterplate (Beckton Dickinson, Franklin Lakes, USA). In addition PMA were added (1.3 nM) and the cells were incubated for three days. After three days the medium were exchanged and Pseudomonas aeruginosa LPS and the peptides were added. The incubation time was four hours and the supernatant was frozen at −20° C. The cells were stained with Tryphan Blue for 2 minutes and washed with PBS two times. The viability of the cells was determined by counting the stained cells over the unstained. The supernatent was used to measure the TNFα production by an ELISA (eBioscience, San Diego, USA) following the manufactures protocol.
LPS from P. aeruginosa strain H103 was highly purified free of proteins and lipids using the Darveau-Hancock method. Briefly, P. aeruginosa was grown overnight in LB broth at 37° C. Cells were collected and washed and the isolated LPS pellets were extracted with a 2:1 chloroform:methanol solution to remove contaminating lipids. Purified LPS samples were quantitated using an assay for the specific sugar 2-keto-3-deoxyoctosonic acid (KDO assay) and then resuspended in endotoxin-free water (Sigma-Aldrich).
Human monocytic cells, THP-1, were obtained from American type culture collection, ATCC® (TIB-202) and were grown in suspension in RPMI-1640 media (Gibco®, Invitrogen™ Life technologies, Burlington, ON), supplemented with 10% (v/v) heat inactivated fetal bovine serum (FBS), 2 mM L-glutamine and 1 mM sodium pyruvate (all from Invitrogen Life Technologies). Cultures were maintained at 37° C. in a humidified 5% (v/v) CO2 incubator up to a maximum of six passages. THP-1 cells at a density of 1×10^6 cells/ml were treated with 0.3 μg/ml phorbol 12-myristate 13-acetate (PMA; Sigma-Aldrich Canada, Oakville ON) for 24 hours, inducing plastic-adherent cells that were further rested in complete RPMI-1640 medium for an additional 24 hours prior to stimulation with various treatments including P. aeruginosa LPS (10 ng/ml) with or without peptides for 24 hours after which supernatants were collected and TNFα assessed by ELISA.
THP-1 cells were stimulated with LPS (10 ng/ml) with or without peptide (10 or 100 μg/ml) for 4 hours as indicated in the results section. Following incubation of the cells under various treatment regimens, the tissue culture supernatants were centrifuged at 1000×g for 5 min, then at 10,000×g for 2 min to obtain cell-free samples. Supernatants were aliquoted and then stored at −20° C. prior to assay for various cytokines. TNFα secretion was detected with a capture ELISA (eBioscience and BioSource International Inc., CA, USA respectively).

Compound: CC[C@H](C)[C@H](N)C(=O)N[C@@H](CC(C)C)C(=O)N1CCC[C@H]1C(=O)N[C@@H](Cc1c[nH]c2ccccc12)C(=O)N[C@@H](CCCCN)C(=O)N[C@@H](Cc1ccccc1)C(=O)N1CCC[C@H]1C(=O)N[C@@H](Cc1c[nH]c2ccccc12)C(=O)N[C@@H](Cc1c[nH]c2ccccc12)C(=O)N1CCC[C@H]1C(=O)N[C@@H](Cc1c[nH]c2ccccc12)C(=O)N[C@@H](CCCNC(=N)N)C(=O)N[C@@H](CCCNC(=N)N)C(N)=O [HH63, ILPWKFPWWPWRR] (H-ILPWKFPWWPWRR-NH2; N-terminus assumed)
- MIC E. coli (Escherichia coli UB1005): 16 µg/mL (≈ 8.57 µM)
- MIC C. albicans [1]: 16 µg/mL (≈ 8.57 µM)
- MIC E. faecalis [2]: 31 µg/mL (≈ 16.6 µM)
- MIC S. aureus [3]: 8 µg/mL (≈ 4.28 µM)
- MIC S. typhi [4]: 31 µg/mL (≈ 16.6 µM)
- MIC S. epi. [5]: 4 µg/mL (≈ 2.14 µM)
- MIC P. aerug [6]: 62 µg/mL (≈ 33.2 µM)
- ability to inhibit TNFα responses compared with indolicidin [7]: slightly better or equivalent than indolicidin

Compound: CC[C@H](C)[C@H](N)C(=O)N[C@@H](CC(C)C)C(=O)N[C@@H](CCCCN)C(=O)N[C@@H](Cc1c[nH]c2ccccc12)C(=O)N[C@@H](CCCCN)C(=O)N[C@@H](Cc1c[nH]c2ccccc12)C(=O)N1CCC[C@H]1C(=O)N[C@@H](Cc1c[nH]c2ccccc12)C(=O)N[C@@H](Cc1c[nH]c2ccccc12)C(=O)N1CCC[C@H]1C(=O)N[C@@H](Cc1c[nH]c2ccccc12)C(=O)N[C@@H](CCCNC(=N)N)C(=O)N[C@@H](CCCNC(=N)N)C(N)=O [HH111, ILKWKWPWWPWRR]
- MIC E. coli (Escherichia coli UB1005): 8 µg/mL (≈ 4.13 µM)
- MIC C. albicans [1]: 8 µg/mL (≈ 4.13 µM)
- MIC E. faecalis [2]: 31 µg/mL (≈ 16 µM)
- MIC S. aureus [3]: 8 µg/mL (≈ 4.13 µM)
- MIC S. typhi [4]: 31 µg/mL (≈ 16 µM)
- MIC S. epi. [5]: 4 µg/mL (≈ 2.06 µM)
- MIC P. aerug [6]: 16 µg/mL (≈ 8.26 µM)
- ability to inhibit TNFα responses compared with indolicidin [7]: slightly better or equivalent than indolicidin

Compound: CC[C@H](C)[C@H](N)C(=O)N[C@@H](CC(C)C)C(=O)N1CCC[C@H]1C(=O)N[C@@H](Cc1c[nH]c2ccccc12)C(=O)N[C@@H](CCCCN)C(=O)N[C@@H](Cc1c[nH]c2ccccc12)C(=O)N1CCC[C@H]1C(=O)N[C@@H](Cc1c[nH]c2ccccc12)C(=O)N[C@@H](Cc1c[nH]c2ccccc12)C(=O)N[C@@H](CCCCN)C(=O)N[C@@H](Cc1c[nH]c2ccccc12)C(=O)N[C@@H](CCCNC(=N)N)C(=O)N[C@@H](CCCNC(=N)N)C(N)=O [HH117, ILPWKWPWWKWRR] (H-ILPWKWPWWKWRR-NH2; N-terminus assumed)
- MIC E. coli (Escherichia coli UB1005): 8 µg/mL (≈ 4.13 µM)
- MIC C. albicans [1]: 16 µg/mL (≈ 8.26 µM)
- MIC E. faecalis [2]: 31 µg/mL (≈ 16 µM)
- MIC S. aureus [3]: 8 µg/mL (≈ 4.13 µM)
- MIC S. typhi [4]: 31 µg/mL (≈ 16 µM)
- MIC S. epi. [5]: 2 µg/mL (≈ 1.03 µM)
- MIC P. aerug [6]: 16 µg/mL (≈ 8.26 µM)
- ability to inhibit TNFα responses compared with indolicidin [7]: slightly better or equivalent than indolicidin

Compound: CC[C@H](C)[C@H](N)C(=O)N[C@@H](CC(C)C)C(=O)N1CCC[C@H]1C(=O)N[C@@H](Cc1c[nH]c2ccccc12)C(=O)N[C@@H](Cc1c[nH]c2ccccc12)C(=O)N[C@@H](Cc1c[nH]c2ccccc12)C(=O)N1CCC[C@H]1C(=O)N[C@@H](Cc1c[nH]c2ccccc12)C(=O)N[C@@H](Cc1c[nH]c2ccccc12)C(=O)N1CCC[C@H]1C(=O)N[C@@H](Cc1c[nH]c2ccccc12)C(=O)N[C@@H](CCCNC(=N)N)C(=O)N[C@@H](CCCNC(=N)N)C(N)=O [HH235, ILPWWWPWWPWRR] (H-ILPWWWPWWPWRR-NH2; N-terminus assumed)
- MIC E. coli (Escherichia coli UB1005): >84 µg/mL
- MIC C. albicans [1]: 84 µg/mL (≈ 42.8 µM)
- MIC E. faecalis [2]: 84 µg/mL (≈ 42.8 µM)
- MIC S. aureus [3]: 20 µg/mL (≈ 10.2 µM)
- MIC S. typhi [4]: >84 µg/mL
- MIC S. epi. [5]: 5 µg/mL (≈ 2.55 µM)
- MIC P. aerug [6]: >84 µg/mL
- ability to inhibit TNFα responses compared with indolicidin [7]: slightly better or equivalent than indolicidin

Compound: HH1010: peptide derived from indolicidin; sequence not in the text shown (ILRWKWRWWRWRR-NH2)
- ability to inhibit TNFα responses compared with indolicidin [7]: slightly better or equivalent than indolicidin

Compound: HH1011: peptide derived from indolicidin; sequence not in the text shown (RWRWWRWRR-NH2)
- ability to inhibit TNFα responses compared with indolicidin [7]: slightly better or equivalent than indolicidin

Compound: LL-37 [reference compound]
- suppression of LPS-induced TNFα ([7]; P. aeruginosa LPS 10 ng/ml (FIG. 12)): strongly suppressed
